# pIC50: −log10 of the molar value. The source made the active and inactive calls. The rule behind the calls is not given here.
# Experiments:
# [1] = test system: AGS; experiment: Induction of cell cycle arrest in human AGS cells assessed as increase in P21 expression at 0.5 to 2 uM by Western blotting analysis; assay type: functional, cell-based; details: dose 0.5-2 µM
# [2] = test system: HGC-27; experiment: Downregulation of Bcl-xl expression in human HGC-27 cells at 0.5 to 2 uM incubated overnight by Western blotting analysis; assay type: functional, cell-based; details: dose 0.5-2 µM
# [3] = test system: HGC-27; experiment: Downregulation of RNA splicing pathway in human HGC-27 cells at 2 uM incubated for 24 hrs by GESA; assay type: functional, cell-based
# [4] = test system: AGS; experiment: Downregulation of Bcl-xl expression in human AGS cells at 0.5 to 2 uM incubated overnight by Western blotting analysis; assay type: functional, cell-based; details: dose 0.5-2 µM
# [5] = test system: A549; experiment: Antiproliferative activity against human A549 cells assessed as inhibition of cell proliferation incubated for 72 hrs by MTT assay; assay type: functional, cell-based; details: A549, 72 h
# [6] = Toxicity in male ICR mouse assessed as animal death at 1 g/Kg, ip measured after 7 days; assay type: organism-based; details: in vivo, 1000 mg/kg, 168 h, time 7 day
# [7] = test system: HGC-27; experiment: Downregulation of SRSF1 protein level in human HGC-27 cells at 0.5 to 2 uM by Western blotting analysis; assay type: functional, cell-based; details: dose 0.5-2 µM
# [8] = test system: AGS; experiment: Induction of apoptosis in human AGS cells assessed as early apoptotic cells at 1 uM incubated for 48 hrs by annexin V-FITC and PI staining based flow cytometry analysis (reference value: 4.44%); assay type: functional
# [9] = test system: AGS; experiment: Induction of cell cycle arrest in human AGS cells assessed as increase in S phase ratio at 0.5 to 2 uM incubated for 24 hrs by staining based flow cytometric analysis ( Rvb = 32.86%); assay type: functional; details: dose 0.5-2 µM
# [10] = test system: AGS; experiment: Induction of cell cycle arrest in human AGS cells assessed as reduction in CyclinE2 expression at 0.5 to 2 uM by Western blotting analysis; assay type: functional, cell-based; details: dose 0.5-2 µM
# [11] = test system: AGS; experiment: Induction of apoptosis in human AGS cells assessed as necrotic cells at 0.5 uM incubated for 48 hrs by annexin V-FITC and PI staining based flow cytometry analysis (reference value: 0.44%); assay type: functional
# [12] = test system: HGC-27; experiment: Induction of apoptosis in human HGC-27 cells assessed as viable cells at 1 uM incubated for 48 hrs by annexin V-FITC and PI staining based flow cytometry analysis (reference value: 91.8%); assay type: functional; details: read-out: Activity
# [13] = test system: HGC-27; experiment: Induction of autophagy in human HGC-27 cells assessed as increase in green fluorescent number co-treated with chloroquine at 2 uM incubated for 48 hrs by DAPI staining based immunofluorescence analysis; assay type: functional, cell-based
# [14] = test system: AGS; experiment: Induction of apoptosis in human AGS cells assessed as late apoptotic cells at 0.5 uM incubated for 48 hrs by annexin V-FITC and PI staining based flow cytometry analysis (reference value: 3.15%); assay type: functional
# [15] = test system: HGC-27; experiment: Induction of apoptosis in human HGC-27 cells assessed as late apoptotic cells at 2 uM incubated for 48 hrs by annexin V-FITC and PI staining based flow cytometry analysis (reference value: 5.02%); assay type: functional
# [16] = test system: HGC-27; experiment: Antitumor activity against human HGC-27 cells xenografted in male BALB/c nude mouse assessed as tumor growth inhibition at 25 mg/kg, ip administered every day for 15 days relative to control; assay type: functional; details: HGC-27, 360 h, time 15 day, read-out: TGI
# [17] = test system: HGC-27; experiment: Induction of autophagy in human HGC-27 cells assessed as downregulation of P62 protein level at 0.5 to 2 uM incubated for 48 hrs by Western blotting analysis; assay type: functional, cell-based; details: dose 0.5-2 µM
# [18] = test system: HGC-27; experiment: Downregulation of RNA splicing pathway in human HGC-27 cells at 2 uM incubated for 24 hrs by KEGG enrichment analysis; assay type: functional, cell-based
# [19] = test system: HGC-27; experiment: Induction of apoptosis in human HGC-27 cells assessed as viable cells at 2 uM incubated for 48 hrs by annexin V-FITC and PI staining based flow cytometry analysis (reference value: 91.8%); assay type: functional; details: read-out: Activity
# [20] = Toxicity in male BALB/c nude mouse assessed as change in body weight at 25 to 100 mg/kg, ip administered daily and measured after 15 days; assay type: organism-based; details: in vivo, 360 h, dose 25-100 mg/kg, time 15 day
# [21] = Toxicity in male ICR mouse assessed as body weight gain at 1 g/Kg, ip measured after 7 days; assay type: organism-based; details: in vivo, 1000 mg/kg, 168 h, time 7 day
# [22] = test system: AGS; experiment: Induction of apoptosis in human AGS cells assessed as necrotic cells at 1 uM incubated for 48 hrs by annexin V-FITC and PI staining based flow cytometry analysis (reference value: 0.44%); assay type: functional
# [23] = test system: HGC-27; experiment: Induction of autophagy in human HGC-27 cells assessed as decrease in P62 protein level in tumor tissue at 25 to 100 mg/kg, ip administered daily; assay type: functional, organism-based; details: dose 25-100 mg/kg
# [24] = test system: HGC-27; experiment: Induction of apoptosis in human HGC-27 cells assessed as necrotic cells at 2 uM incubated for 48 hrs by annexin V-FITC and PI staining based flow cytometry analysis (reference value: 0.062%); assay type: functional
# [25] = test system: AGS; experiment: Downregulation of SRSF1 mRNA expression in human AGS cells incubated for 24 hrs by SYBR green dye based RT-qPCR analysis; assay type: functional, cell-based; details: dose 0.5-2 µM
# [26] = test system: U-251; experiment: Antiproliferative activity against human U-251 cells assessed as inhibition of cell proliferation incubated for 72 hrs by MTT assay; assay type: functional, cell-based; details: U-251, 72 h
# [27] = test system: HGC-27; experiment: Induction of autophagy in human HGC-27 cells assessed as upregulation of ATG5 protein level at 0.5 to 2 uM incubated for 48 hrs by Western blotting analysis; assay type: functional, cell-based; details: dose 0.5-2 µM
# [28] = test system: B16-F10; experiment: Antiproliferative activity against mouse B16-F10 cells assessed as inhibition of cell proliferation incubated for 72 hrs by MTT assay; assay type: functional, cell-based; details: B16-F10, 72 h
# [29] = test system: HGC-27; experiment: Induction of apoptosis in human HGC-27 cells assessed as necrotic cells at 1 uM incubated for 48 hrs by annexin V-FITC and PI staining based flow cytometry analysis (reference value: 0.062%); assay type: functional
# [30] = test system: HGC-27; experiment: Induction of cell cycle arrest in human HGC-27 cells assessed as increase in P21 expression at 0.5 to 2 uM by Western blotting analysis; assay type: functional, cell-based; details: dose 0.5-2 µM
# [31] = test system: AGS; experiment: Induction of autophagy in human AGS cells assessed as upregulation of LC3 II protein level at 0.5 to 2 uM incubated for 48 hrs by Western blotting analysis; assay type: functional, cell-based; details: dose 0.5-2 µM
# [32] = test system: HGC-27; experiment: Induction of apoptosis in human HGC-27 cells assessed as early apoptotic cells at 1 uM incubated for 48 hrs by annexin V-FITC and PI staining based flow cytometry analysis (reference value: 3.13%); assay type: functional
# [33] = test system: HGC-27; experiment: Induction of cell cycle arrest in human HGC-27 cells assessed as increase in S phase ratio at 0.5 to 2 uM incubated for 24 hrs by staining based flow cytometric analysis ( Rvb = 50.19%); assay type: functional; details: dose 0.5-2 µM
# [34] = test system: AGS; experiment: Induction of autophagy in human AGS cells assessed as upregulation of ATG5 protein level at 0.5 to 2 uM incubated for 48 hrs by Western blotting analysis; assay type: functional, cell-based; details: dose 0.5-2 µM
# [35] = test system: BGC-823; experiment: Antiproliferative activity against human BGC-823 cells assessed as inhibition of cell proliferation incubated for 72 hrs by MTT assay; assay type: functional, cell-based; details: BGC-823, 72 h
# [36] = test system: AGS; experiment: Induction of apoptosis in human AGS cells assessed as viable cells at 0.5 uM incubated for 48 hrs by annexin V-FITC and PI staining based flow cytometry analysis (reference value: 92.0%); assay type: functional; details: read-out: Activity
smiles,measurement,setting,value
CC(C)[C@]12O[C@H]1[C@@H]1O[C@]13[C@]1(O[C@H]1C[C@H]1C4=C(CC[C@@]13C)C(=S)OC4)[C@@H]2O,Activity,[1],Active
same,Activity,[2],Active
same,Activity,[3],Active
same,Activity,[4],Active
same,pIC50,[5],5.16
same,Activity,[6],Non-toxic
same,Activity,[7],Active
same,Activity,[8],17.2%
same,Activity,[9],52.16%
same,Activity,[10],Active
same,Activity,[11],0.55%
same,viability at 1 µM,[12],84.5%
same,Activity,[13],Active
same,Activity,[14],7.89%
same,Activity,[15],19.7%
same,inhibition in vivo at 25 mg/kg,[16],63.7%
same,Activity,[17],Active
same,Activity,[18],Active
same,viability at 2 µM,[19],52%
same,Activity,[20],Non-toxic
same,Activity,[21],Non-toxic
same,Activity,[22],0.73%
same,Activity,[23],Active
same,Activity,[24],0.16%
same,Activity,[25],Dose-dependent-effect
same,pIC50,[26],5.79
same,Activity,[27],Active
same,pIC50,[28],6.48
same,Activity,[29],0.11%
same,Activity,[30],Active
same,Activity,[31],Active
same,Activity,[32],6.12%
same,Activity,[33],75.34%
same,Activity,[34],Active
same,pIC50,[35],5.88
same,viability at 0.5 µM,[36],82.3%
